Read-outs that look alike come from different tables or passages of the source. Non-standard residues stand in square brackets, D forms with d. Residues, ends and D or L forms follow the SMILES beside them. *: point of attachment. Nle = CCCC[C@H](N)C(=O)O; Cbz = O=C(OCc1ccccc1)*; CH2F = FC*
What was measured:
[1] = tested on: HT-1080, BJeLR and Calu-1 cells; experiment: Modulatory profiling of cell death inhibitors against erastin; format: cell-based, human; settings: erastin 10 μM, 24 hours; 10-point, 4-fold dilution series
Protocol: The day before the experiment, cells were seeded in black, 384-well clear bottom plates (Corning) at a density of 1,000 cells/well using a Beckman Biomek FX Workstation. All compounds (except 3-methyladenine and chloroquine, which were diluted in water) were diluted in DMSO at 250 times the final highest test concentration, and aliquoted across a 384-well plate (Greiner, Monroe, N.C.). A ten-point, 4-fold dilution series of each inhibitor in DMSO was made using a multichannel pipette. Replicates of this mother plate were stored at −20° C. […] Medium was removed from cells and replaced with 36 μL medium containing DMSO (0.1%) or erastin (10 μM final concentration). Using the Biomek FX, 4 μL were then transferred from each inhibitor daughter plate into the DMSO-containing or erastin-containing assay plates. For 3-methyladenine and chloroquine, inhibitors were prepared fresh in media at 10-fold the final concentration in the presence of DMSO or 10 μM erastin. These solutions were manually pipetted onto cells in 384-well format. Assay plates were incubated at 37° C. for 24 hours. Viability was assessed using Alamar Blue.
The modulatory effect (Me) for drug-drug interactions was computed as follows. First, plate-based background correction was performed using Alamar Blue values from empty (cell-free) wells included on each plate. Next, within each experiment, 100% viability is determined as the average Alamar Blue score for cells treated with modulator=DMSO and lethal=DMSO, and all Alamar Blue values were scaled from 0 to 1 with the DMSO×DMSO condition=1. The individual effects of each modulator and lethal (e.g. in the presence of DMSO) at all tested doses were then ascertained. […] Next, BExp was compared to the actual observed viability. […] By default, Me in DMSO-treated cells is equal to 0. […] Me values for each inhibitor-lethal drug combination were hierarchically clustered and plotted as a heatmap using the heatmaps.2 function of the gplots library in R.

[2] = Metabolic stability in mouse liver microsomes; format: in vitro ADME; settings: for Elimination rate constant (k) / Intrinsic Clearance (CLint) (mL/min/g liver): Mouse; for half-life at 0.5 μM: mouse, liver microsomes
Protocol: Test compounds (0.5 μM) were incubated at 37° C. for up to 45 minutes in 50 mM of potassium phosphate buffer (pH 7.4) containing mouse liver microsomal protein (0.5 mg/mL) and an NADPH generating system (0.34 mg/mL β-nicotinamide adenine dinucleotide phosphate (NADP), 1.56 mg/mL glucose-6-phosphate, 1.2 units/mL glucose-6-phosphate dehydrogenase). At 0, 5, 15, 30, and 45 minute intervals, an aliquot was taken and quenched with acetonitrile (ACN) containing internal standard. No-cofactor controls at 45 minutes were prepared. Following completion of the experiment, the samples were analyzed by LC-MS/MS.
The half-life (t1/2) was calculated using the following equation: t1/2=0.693/k Where, k is the elimination rate constant of test compounds obtained by fitting the data to the equation: C=initial×exp(−k×t) Intrinsic clearance (Clint) is calculated as liver clearance from the half-life using the following equation: […]
0.5 mg protein/mL incubation
Ethoxycoumarin was used as a control.

[3] = tested on: HT-1080 cells; experiment: Inhibition of erastin (10 μM)-induced death in HT-1080 cells (Alamar Blue); format: cell-based, human; settings: for EC50: Homo sapiens, read-out: EC50
Protocol: Cell viability was typically assessed in 384-well format by Alamar Blue (Invitrogen) fluorescence (ex/em 530/590) measured on a Victor3 platereader (Perkin Elmer, Waltham, Mass.). In some experiments, Trypan Blue dye exclusion counting was performed using an automated cell counter (ViCell, Beckman-Coulter Inc., Brea, Calif.). Cell viability in test conditions is reported as a percentage relative to the negative control treatment.
The ability of various compounds disclosed herein to inhibit death in erastin (10 μM)-treated HT-1080 cells were tested. Cell viability was assessed by Alamar Blue. EC50 values (nM) were computed from dose response curves.
HT-1080 cells are cultured in DMEM containing 10% fetal bovine serum, 1% supplemented non-essential amino acids and 1% pen/strep mixture (Gibco) and maintained in a humidified environment at 37° C. with 5% CO2 in a tissue culture incubator. 1,000 HT-1080 cells are seeded per well in duplicate 384-well plates (Corning) using a BioMek FX liquid handling robot (Beckman Coulter). The next day, the medium is replaced with 36 μL of medium containing 10 μM erastin with 4 μL of medium containing a dilution series (previously prepared) of DMSO, Fer-1 (positive control) or Fer-1 analogs. 24 hours later, 10 μL Alamar Blue (Invitrogen) cell viability solution is added to the growth media to a final concentration of 10%. Cells are incubated a further 6 hours and then the Alamar Blue fluorescence intensity recorded using a Victor 3 platereader (PerkinElmer)(ex/em 530/590). All experiments are performed at least twice and the background (no cells)-subtracted Alamar Blue values for each combination are averaged between replicates.

[4] = In vitro stability study in mouse plasma; format: in vitro ADME
Protocol: The assay was conducted by incubating 1 μM of test compounds with Mouse Plasma (Strain […]) for a series of incubation times (0, 15, 30, 60, 120 minutes) at various temperatures (wet ice, room temperature, or 37° C.) with 5% CO2 and shaking (130 rpm). At each time point, the samples were quenched with 200 μL of stop solution containing an internal standard and kept on ice. The samples were analysed by LC-MS/MS.

[5] = pH 7.4, Mouse, Compound Conc = 0.5 μM, read-out: Half life (t½)
[6] = HT-1080, Table 1 (Example 10), erastin (10 μM)-treated HT-1080 cells

With `CCOC(=O)[C@H]1O[C@@H]1C(=O)N[C@@H](CC(C)C)C(=O)NCCC(C)C` (relative stereo) [Compound E64d, (2S,3S)-trans-epoxysuccinyl-L-leucylamido-3-methylbutane ethyl ester] the “modulation of erastin-induced death” value [1] was “not consistently modulated”.

In the case of `Cn1cnc(N)c2ncnc1-2` [3-methyladenine], the “modulation of erastin-induced death” value [1] is reported as “not consistently modulated”.

With `CCCC[C@@H](C=O)NC(=O)[C@H](CC(C)C)NC(=O)[C@H](CC(C)C)NC(C)=O` [ALLN, N-Acetyl-Leu-Leu-Nle-CHO] (Ac-Leu-Leu-[Nle]-aldehyde) the “modulation of erastin-induced death” value [1] was “not consistently modulated”.

With `C[C@@H]1C[C@@H]([C@H](O)CC2CC(=O)NC(=O)C2)C(=O)[C@@H](C)C1` [CHX, cycloheximide] the “modulation of erastin-induced death” value [1] was “to a weaker extent”.

In the case of `CCOc1ccc2ccc(=O)oc2c1` [Ethoxycoumarin, reference compound], the “Elimination rate constant (k)” value ([2]; Compound Conc = 0.5 μM) is reported as 0.2661, the “Intrinsic Clearance (CLint) (mL/min/g liver)” value (shortened to “Intrinsic Clearance (CLint)”) ([2]; Compound Conc = 0.5 μM) is reported as 27.94 mL/min/g liver and the half-life at 0.5 μM [2, 5] is reported as 0.0433 h.

For `CCOC(=O)c1ccc(NC23CC4CC(CC(C4)C2)C3)c(NCc2ccccc2)c1` [SRS15-23, ethyl 3-(benzylamino)-4-(1-adamantylamino)benzoate], the EC50 [3, 6] was 23 nM.

`CCOC(=O)c1ccc(NC23CC4CC(CC(C4)C2)C3)c(NCc2ccncc2)c1` [SRS15-24, ethyl 4-(1-adamantylamino)-3-((pyridin-4-ylmethyl)amino)-benzoate] gave an EC50 [3, 6] of 8.6 nM.

With `CCOC(=O)c1ccc(NC23CC4CC(CC(C4)C2)C3)c(/N=C\c2cncnc2)c1` [SRS15-72, ethyl 4-(adamantylamino)-3-(pyrimidin-5-ylmethyleneamino)benzoate] the EC50 [3, 6] was 288 nM, the “Elimination rate constant (k)” value ([2]; Compound Conc = 0.5 μM) was 0.0045 and the “Intrinsic Clearance (CLint)” value ([2]; Compound Conc = 0.5 μM) was 0.47 mL/min/g liver. The half-life at 0.5 μM [2, 5] was 2.57 h, the “Peak Area Ratio” value ([4]; Room Temperature, 0 min) was 2.0737 and the “Percent Remaining” value ([4]; Room Temperature, 0 min) was 100.0%. The “Peak Area Ratio” value ([4]; Room Temperature, 15 min) was 1.1581, the “Percent Remaining” value ([4]; Room Temperature, 15 min) was 55.8% and the “Peak Area Ratio” value ([4]; Room Temperature, 30 min) was 0.5320. The “Percent Remaining” value ([4]; Room Temperature, 30 min) was 25.7%, the “Peak Area Ratio” value ([4]; Room Temperature, 60 min) was 0.2502 and the “Percent Remaining” value ([4]; Room Temperature, 60 min) was 12.1%. For the same compound, the “Peak Area Ratio” value ([4]; Room Temperature, 120 min) was 0.0841, the “Percent Remaining” value ([4]; Room Temperature, 120 min) was 4.1% and the “Peak Area Ratio” value ([4]; Wet Ice, 0 min) was 2.6066. The “Percent Remaining” value ([4]; Wet Ice, 0 min) was 100.0%, the “Peak Area Ratio” value ([4]; Wet Ice, 15 min) was 2.0815 and the “Percent Remaining” value ([4]; Wet Ice, 15 min) was 79.9%. The “Peak Area Ratio” value ([4]; Wet Ice, 30 min) was 1.6279, the “Percent Remaining” value ([4]; Wet Ice, 30 min) was 62.5% and the “Peak Area Ratio” value ([4]; Wet Ice, 60 min) was 1.4397. For the same compound, the “Percent Remaining” value ([4]; Wet Ice, 60 min) was 55.2%, the “Peak Area Ratio” value ([4]; Wet Ice, 120 min) was 1.2446 and the “Percent Remaining” value ([4]; Wet Ice, 120 min) was 47.7%.

In the case of `CCOC(=O)c1ccc(NC23CC4CC(CC(C4)C2)C3)c(NCc2cncnc2)c1` [SRS16-41, ethyl 4-(adamantylamino)-3-(pyrimidin-5-ylmethylamino)benzoate], the EC50 [3, 6] is reported as 16 nM, the “Elimination rate constant (k)” value ([2]; Compound Conc = 0.5 μM) is reported as 0.3149 and the “Intrinsic Clearance (CLint)” value ([2]; Compound Conc = 0.5 μM) is reported as 35.9 mL/min/g liver. For the same compound, the half-life at 0.5 μM [2, 5] was 0.0333 h, the “Peak Area Ratio” value ([4]; Room Temperature, 0 min) was 5.8556 and the “Percent Remaining” value ([4]; Room Temperature, 0 min) was 100.0%. The “Peak Area Ratio” value ([4]; Room Temperature, 15 min) was 0.6709, the “Percent Remaining” value ([4]; Room Temperature, 15 min) was 11.5% and the “Peak Area Ratio” value ([4]; Room Temperature, 30 min) was 0.0885. The “Percent Remaining” value ([4]; Room Temperature, 30 min) was 1.5%, the “Peak Area Ratio” value ([4]; Room Temperature, 60 min) was 0.0206 and the “Percent Remaining” value ([4]; Room Temperature, 60 min) was 0.4%. The “Peak Area Ratio” value ([4]; Room Temperature, 120 min) was 0.0159, the “Percent Remaining” value ([4]; Room Temperature, 120 min) was 0.3% and the “Peak Area Ratio” value ([4]; Wet Ice, 0 min) was 6.9233. For the same compound, the “Percent Remaining” value ([4]; Wet Ice, 0 min) was 100.0%, the “Peak Area Ratio” value ([4]; Wet Ice, 15 min) was 5.7631 and the “Percent Remaining” value ([4]; Wet Ice, 15 min) was 83.2%. The “Peak Area Ratio” value ([4]; Wet Ice, 30 min) was 4.7595, the “Percent Remaining” value ([4]; Wet Ice, 30 min) was 68.7% and the “Peak Area Ratio” value ([4]; Wet Ice, 60 min) was 3.4547. For the same compound, the “Percent Remaining” value ([4]; Wet Ice, 60 min) was 49.9%, the “Peak Area Ratio” value ([4]; Wet Ice, 120 min) was 1.9564 and the “Percent Remaining” value ([4]; Wet Ice, 120 min) was 28.3%.

For `CC(C)OC(=O)c1ccc(NC23CC4CC(CC(C4)C2)C3)c(/N=C\c2cncnc2)c1` [SRS16-80, isopropyl 4-(adamantylamino)-3-(pyrimidin-5-ylmethyleneamino)benzoate], the “fold lower potency caused by the imine” value ([3]; HT-1080, erastin (10 μM)) was “about 6 fold”, the EC50 ([3]; HT-1080, Example 15, erastin (10 μM), HT-1080) was about 300 nM and the EC50 [3, 6] was 583 nM. For the same compound, the “Elimination rate constant (k)” value ([2]; Compound Conc = 0.5 μM) was 0.0089, the “Intrinsic Clearance (CLint)” value ([2]; Compound Conc = 0.5 μM) was 0.94 mL/min/g liver and the half-life at 0.5 μM [2, 5] was 1.29 h. For the same compound, the half-life at 0.5 μM ([2]; pH 7.4, stated in the text of Example 15, read-out: T1/2 in mouse liver microsomes) was 2.57 h, the “mouse plasma stability” value [4] was “rapidly hydrolyzed” and the “Percent Remaining” value ([4]; 37° C., 0 minutes) was 100.0%. For the same compound, the “Sum of Peak Area Ratios” value ([4]; 37° C., 0 minutes) was 0.382, the “Percent Remaining” value ([4]; 37° C., 15 minutes) was 23.8% and the “Sum of Peak Area Ratios” value ([4]; 37° C., 15 minutes) was 0.0911. The “Percent Remaining” value ([4]; 37° C., 30 minutes) was 9.9%, the “Sum of Peak Area Ratios” value ([4]; 37° C., 30 minutes) was 0.0379 and the “Percent Remaining” value ([4]; 37° C., 60 minutes) was 4.5%. For the same compound, the “Sum of Peak Area Ratios” value ([4]; 37° C., 60 minutes) was 0.017, the “Percent Remaining” value ([4]; 37° C., 120 minutes) was 2.5% and the “Sum of Peak Area Ratios” value ([4]; 37° C., 120 minutes) was 0.0095. For the same compound, the half-life at 1 μM ([4]; C57BL/4, mouse, plasma, read-out: T1/2 in mouse plasma) was under 0.25 h.

With `CO/C1=C\C(C)=C\[C@@H](C)[C@@H](O)[C@@H](C)C/C(C)=C/C=C/[C@H](OC)[C@@H]([C@@H](C)[C@@H](O)[C@H](C)[C@@]2(O)C[C@@H](O)[C@H](C)[C@@H](C(C)C)O2)OC1=O` [bafilomycin A1] the “modulation of erastin-induced death” value [1] was “not consistently modulated”.

In the case of `CCN(CC)CCCC(C)Nc1ccnc2cc(Cl)ccc12` (stereo not shown) [chloroquine], the “modulation of erastin-induced death” value [1] is reported as “not consistently modulated”.

For `COC(=O)CC(NC(=O)C(C)NC(=O)C(NC(=O)OCc1ccccc1)C(C)C)C(=O)CF` (stereo not drawn) [z-VAD-fmk, carbobenzyloxy-valyl-alanyl-aspartyl-[O-methyl]-fluoromethylketone] (Cbz-Val-Ala-Asp(OMe)-CH2F; configuration not given here), the “modulation of erastin-induced death” value [1] was “not consistently modulated”.
